# Reference: ChEMBL document CHEMBL1201862, “PubChem BioAssay data set” (2004)
#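 Method: 48-hour compound exposure of cells in 96-well plates, five concentrations, linear interpolation of endpoints. Abbreviation: GI50, concentration required for 50% inhibition of growth.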 Activity calls are given as the source filed them. Cut-off read from the data, not from the text of the source: active = GI50 up to about 1.1 µM and inactive = higher.
# Legend:
# Test in all cases: inhibition of tumour cell growth, NCI panel, 48 h
# [1] = test system: KM12
# [2] = test system: SW-620
# [3] = test system: A549
# [4] = test system: SK-MEL-28
# [5] = test system: SK-MEL-5
# [6] = test system: LOX IMVI
# [7] = test system: TK-10
# [8] = test system: UACC-62
# [9] = test system: SF-268
# [10] = test system: NCI-H23
# [11] = test system: Malme-3M
# [12] = test system: MDA-N
# [13] = test system: COLO 205
# [14] = test system: CCRF-CEM
# [15] = test system: HCT-116
# [16] = test system: OVCAR-3
# [17] = test system: SNB-19
# [18] = test system: MCF7
# [19] = test system: U-251
# [20] = test system: NCI-H226
SMILES,GI50 [1],GI50 [2],GI50 [3],GI50 [4],GI50 [5],GI50 [6],GI50 [7],GI50 [8],GI50 [9],GI50 [10],GI50 [11],GI50 [12],GI50 [13],GI50 [14],GI50 [15],GI50 [16],GI50 [17],GI50 [18],GI50 [19],GI50 [20]
Nc1nc(-c2ccccc2)cc(-c2ccc(OCc3ccccc3)cc2O)n1,34.4 µM (inactive),39.4 µM (inactive),33.4 µM (inactive),89.9 µM (inactive),17.5 µM (inactive),33.9 µM (inactive),24.7 µM (inactive),64.7 µM (inactive),44.3 µM (inactive),38.3 µM (inactive),24.2 µM (inactive),39.3 µM (inactive),45.7 µM (inactive),17 µM (inactive),28.8 µM (inactive),26.7 µM (inactive),50.2 µM (inactive),32.1 µM (inactive),31.8 µM (inactive),46.1 µM (inactive)
CNC(=O)OCCN1c2ccccc2Sc2ccccc21,> 100 µM (inactive),> 100 µM (inactive),87.1 µM (inactive),> 100 µM (inactive),50.4 µM (inactive),91.6 µM (inactive),> 100 µM (inactive),4.99 µM (inactive),> 100 µM (inactive),> 100 µM (inactive),> 100 µM (inactive),> 100 µM (inactive),> 100 µM (inactive),> 100 µM (inactive),74 µM (inactive),63.2 µM (inactive),> 100 µM (inactive),> 100 µM (inactive),> 100 µM (inactive),47.9 µM (inactive)
COc1cc2cc(C(=O)N3CC(CCl)c4c3cc(NC(=O)C(C)Nc3c([N+](=O)[O-])cc(C(=O)NCCN(C)C)cc3[N+](=O)[O-])c3ccccc43)[nH]c2c(OC)c1OC (stereo not given),0.119 µM (active),0.117 µM (active),0.0682 µM (active),0.123 µM (active),0.104 µM (active),0.0478 µM (active),0.333 µM (active),0.0586 µM (active),0.0202 µM (active),< 0.01 µM (active),0.129 µM (active),0.158 µM (active),0.0515 µM (active),< 0.01 µM (active),0.0743 µM (active),0.201 µM (active),0.14 µM (active),0.0118 µM (active),0.0178 µM (active),0.113 µM (active)
CCCCCNC1=CC(=O)c2ccccc2C1=O,> 100 µM (inactive),> 100 µM (inactive),42.8 µM (inactive),> 100 µM (inactive),17.9 µM (inactive),22.6 µM (inactive),30.2 µM (inactive),33.7 µM (inactive),25.1 µM (inactive),24.3 µM (inactive),34.5 µM (inactive),> 100 µM (inactive),79.6 µM (inactive),> 100 µM (inactive),22.9 µM (inactive),22.5 µM (inactive),24.3 µM (inactive),> 72.3 µM (inactive),17.5 µM (inactive),31.6 µM (inactive)
Oc1cc(F)cc2cccnc12,1.3 µM (inactive),0.855 µM (active),1.02 µM (active),48 µM (inactive),0.998 µM (active),0.362 µM (active),17.9 µM (inactive),2.73 µM (inactive),0.218 µM (active),1.09 µM (active),0.628 µM (active),12.6 µM (inactive),5.89 µM (inactive),0.0778 µM (active),1.89 µM (inactive),0.0975 µM (active),5.31 µM (inactive),0.0689 µM (active),0.957 µM (active),3.54 µM (inactive)
O=C(/N=S(/NC(=O)c1ccccc1)C(Cl)(Cl)Cl)c1ccccc1 (stereo not given),> 65 µM (inactive),3.57 µM (inactive),> 56.9 µM (inactive),25.3 µM (inactive),14.3 µM (inactive),10.6 µM (inactive),> 100 µM (inactive),22.6 µM (inactive),50.2 µM (inactive),12.4 µM (inactive),17.5 µM (inactive),29.8 µM (inactive),14.8 µM (inactive),2.7 µM (inactive),15.5 µM (inactive),31.2 µM (inactive),51.2 µM (inactive),24 µM (inactive),29.9 µM (inactive),25.6 µM (inactive)
NC(=O)[C@H](Cc1ccc(O)cc1)NC1=C(Cl)C(=O)c2c(O)ccc(O)c2C1=O,2.67 µM (inactive),1.06 µM (active),7.73 µM (inactive),2.21 µM (inactive),1.47 µM (inactive),1.61 µM (inactive),2.72 µM (inactive),1.85 µM (inactive),3.7 µM (inactive),3.26 µM (inactive),1.96 µM (inactive),1.93 µM (inactive),1.5 µM (inactive),0.241 µM (active),1.57 µM (inactive),2.14 µM (inactive),> 10 µM (inactive),1.32 µM (inactive),2.97 µM (inactive),> 10 µM (inactive)
